Source: patent US7601745B2, “Heterocyclic NF-kB inhibitors” (4SC AG, priority 2004, dated 2009)

Test system: A549-NF-κB-SEAP reporter cells
Assay: Inhibition of NF-κB-induced inflammation ([…] NINA Instant Assay, SEAP reporter)
Type: cell-based
Conditions: NF-κB inflammation assay
From the text: For the determination of anti-inflammatory activity of the compounds the […]® NINA Instant Assay from Cell Culture Service GmBH was used. This assay is based on recombinant A549-NF-κB-SEAP reporter cells preseeded in 96-well flat bottom plates. As the transfected reportergen for SEAP (secreted embryonic alkaline phosphatase) is under transcriptional control of a NF-κB-responsive element, the expression of this reporter is activated upon stimulation with TNF-α. SEAP secretion into the culture supernatant can be detected by the chemiluminescent substrate CSPD®. Test compounds that inhibit the NF-κB activation show reduced SEAP activity and reduced luminescent readout.
Following 18 h of reactivation at 37° C., 5% CO2 and 90% relative humidity, the cells were incubated with 0.01 up to 100 μM of test compound for 4.5 h before stimulation with 2 ng/ml TNF-α. After stimulation with TNF-α for 22 h endogenous phosphatases were inactivated and CSPD® substrate was supplied for 40 min. SEAP activity then was quantified by measuring luminescence as relative light units (RLU) using a Tecan Ultra reader. Each data point was recorded in quadruplicates and EC50 values were calculated via fitting function and the Microsoft Excel Solver.

| Compound | Biological activity (inhibition in the NF-κB inflammation assay) |
| --- | --- |
| Cc1cc2nc(NC(=O)c3csc(NC(=O)c4ccccc4OC(F)(F)F)n3)[nH]c2cc1C [compound 25] | +++ (“+++” stands for 90-100% inhibition) |
| N=C(NC(=O)c1coc(NC(=O)c2ccc(C(F)(F)F)c(F)c2)n1)Nc1nc2ccccc2[nH]1 [compound 27] | +++ (“+++” stands for 90-100% inhibition) |
| N=C(NC(=O)c1csc(N2CCN(Cc3ccccc3)CC2)n1)Nc1nc2ccccc2[nH]1 [compound 30] | +++ (“+++” stands for 90-100% inhibition) |
| O=C(Nc1nc2ccccc2[nH]1)c1csc(NC(=O)c2ccccc2OC(F)(F)F)n1 [compound 31] | +++ (“+++” stands for 90-100% inhibition) |
| N=C(NC(=O)c1csc(C2CCN(C(=O)c3ccccc3OC(F)(F)F)CC2)n1)Nc1nc2ccccc2[nH]1 [compound 36] | +++ (“+++” stands for 90-100% inhibition) |
| Cc1cc2nc(NC(=O)c3coc(NC(=O)c4ccccc4OC(F)(F)F)n3)[nH]c2cc1C [compound 40] | +++ (“+++” stands for 90-100% inhibition) |
| CN1CCN(c2ccc3nc(NC(=O)c4csc(NC(=O)c5ccccc5OC(F)(F)F)n4)sc3c2)CC1 [compound 42] | +++ (“+++” stands for 90-100% inhibition) |
| O=C(Nc1nc2ccc([N+](=O)[O-])cc2[nH]1)c1csc(NC(=O)c2ccccc2OC(F)(F)F)n1 [compound 43] | +++ (“+++” stands for 90-100% inhibition) |
| N=C(NC(=O)c1csc(NC(=O)c2ccccc2C2CCCCC2)n1)Nc1nc2ccccc2[nH]1 [compound 45] | +++ (“+++” stands for 90-100% inhibition) |
| Cn1c(NC(=O)c2csc(NC(=O)c3ccccc3OC(F)(F)F)n2)nc2ccccc21 [compound 46] | +++ (“+++” stands for 90-100% inhibition) |
| CCCS(=O)(=O)c1ccc2[nH]c(NC(=O)c3csc(NC(=O)c4ccccc4OC(F)(F)F)n3)nc2c1 [compound 47] | +++ (“+++” stands for 90-100% inhibition) |
| N=C(NC(=O)c1csc(N2CCOCC2)n1)Nc1nc2ccccc2[nH]1 [compound 49] | +++ (“+++” stands for 90-100% inhibition) |
| N=C(NC(=O)c1csc(NC(=O)c2ccc(C(F)(F)F)cc2)n1)Nc1nc2ccccc2[nH]1 [compound 51] | +++ (“+++” stands for 90-100% inhibition) |
| CCCS(=O)(=O)c1ccc2[nH]c(NC(=O)c3csc(C4CCN(C(=O)c5ccccc5OC(F)(F)F)CC4)n3)nc2c1 [compound 52] | +++ (“+++” stands for 90-100% inhibition) |
| NC(=Nc1nc2ccccc2[nH]1)NC(=O)c1csc(NC(=O)c2ccc(C(F)(F)F)cc2F)n1 [compound 53] | +++ (“+++” stands for 90-100% inhibition) |
| NC(=Nc1nc2ccccc2[nH]1)NC(=O)c1csc(NC(=O)Nc2ccccc2OC(F)(F)F)n1 [compound 54] | +++ (“+++” stands for 90-100% inhibition) |
| NC(=Nc1nc2ccccc2[nH]1)NC(=O)c1csc(NC(=O)c2ccc(C(F)(F)F)c(F)c2)n1 [compound 56] | +++ (“+++” stands for 90-100% inhibition) |
| NC(=Nc1nc2ccccc2[nH]1)NC(=O)c1csc(NC(=O)c2c(F)cccc2F)n1 [compound 57] | +++ (“+++” stands for 90-100% inhibition) |

Same assay, conditions: compounds of formula (I); TNF-α stimulated reporter cells; test concentration not given

| Compound | Biological activity (NF-κB inflammation assay, inhibition) |
| --- | --- |
| COc1ccc(OC)c(N2CCC(c3nc(C(=O)N4CCN(c5cccc(C(F)(F)F)c5)CC4)cs3)CC2)c1 [compound 29] | ++ (“++” means 80-90%) |
| O=C(c1csc(C2CCN(CCC(c3ccccc3)c3ccccc3)CC2)n1)N1CCN(c2cccc(C(F)(F)F)c2)CC1 [compound 35] | +++ (“+++” stands for 90-100% inhibition) |

Same assay, conditions: compounds of formula (II); TNF-α stimulated reporter cells; test concentration not given

| Compound | Biological activity (NF-κB inflammation assay, inhibition) |
| --- | --- |
| O=C(Nc1nc(C(=O)N2CCN(c3cccc(C(F)(F)F)c3)CC2)cs1)c1ccccc1OC(F)(F)F [compound 32] | +++ (“+++” stands for 90-100% inhibition) |
| O=C(CCC1CCCC1)Nc1nc(C(=O)N2CCN(c3cccc(C(F)(F)F)c3)CC2)cs1 [compound 33] | +++ (“+++” stands for 90-100% inhibition) |
| O=C(Nc1nc(C(=O)N2CCN(c3cccc(C(F)(F)F)c3)CC2)cs1)c1ccc(C(F)(F)F)c(F)c1 [compound 34] | +++ (“+++” stands for 90-100% inhibition) |
| O=C(CCC1CCCC1)N1CCN(c2nc(C(=O)N3CCN(c4cccc(C(F)(F)F)c4)CC3)cs2)CC1 [compound 37] | +++ (“+++” stands for 90-100% inhibition) |
| COc1ccccc1C(=O)N1CCN(c2nc(C(=O)N3CCN(c4cccc(C(F)(F)F)c4)CC3)cs2)CC1 [compound 38] | +++ (“+++” stands for 90-100% inhibition) |
| O=C(c1csc(N2CCN(C(=O)c3ccccc3OC(F)(F)F)CC2)n1)N1CCN(c2cccc(C(F)(F)F)c2)CC1 [compound 39] | +++ (“+++” stands for 90-100% inhibition) |
| O=C(Nc1nc(C(=O)N2CCN(c3ccc(Cl)c(Cl)c3)CC2)cs1)c1ccccc1OC(F)(F)F [compound 41] | +++ (“+++” stands for 90-100% inhibition) |
| COc1ccccc1N1CCN(C(=O)c2csc(NC(=O)c3ccccc3OC(F)(F)F)n2)CC1 [compound 44] | ++ (“++” means 80-90%) |
| O=C(Nc1nc(C(=O)N2CCN(c3cccc(C(F)(F)F)c3)CC2)cs1)Nc1ccccc1OC(F)(F)F [compound 55] | +++ (“+++” stands for 90-100% inhibition) |
| O=C(Nc1nc(C(=O)N2CCN(C(c3ccccc3)c3ccccc3)CC2)cs1)c1ccccc1OC(F)(F)F [compound 58] | ++ (“++” means 80-90%) |
| O=C(c1cc(C(F)(F)F)cc(C(F)(F)F)c1)N1CCN(c2nc(C(=O)N3CCN(c4cccc(C(F)(F)F)c4)CC3)cs2)CC1 [compound 59] | + (“+” stands for 50-80% inhibition) |
| O=C(c1ccc(C(F)(F)F)c(F)c1)N1CCN(c2nc(C(=O)N3CCN(c4cccc(C(F)(F)F)c4)CC3)cs2)CC1 [compound 60] | +++ (“+++” stands for 90-100% inhibition) |
| N#Cc1ccc(C(=O)N2CCN(c3nc(C(=O)N4CCN(c5cccc(C(F)(F)F)c5)CC4)cs3)CC2)cc1 [compound 61] | +++ (“+++” stands for 90-100% inhibition) |
| N#Cc1ccc(CN2CCN(c3nc(C(=O)N4CCN(c5cccc(C(F)(F)F)c5)CC4)cs3)CC2)cc1 [compound 62] | +++ (“+++” stands for 90-100% inhibition) |
| CC(C)(C)OC(=O)N1CCN(c2nc(C(=O)N3CCN(c4cccc(C(F)(F)F)c4)CC3)cs2)CC1 [compound 63] | ++ (“++” means 80-90%) |
